Source: patent US5464617A, “β-lactam compounds” (Hoffmann-La Roche Inc., priority 1994, dated 1995)
Where a name gives a salt, the structure may show the parent alone.

system: Citrobacter freundii 1982; experiment: MIC in vitro of a 1:4 combination of ceftriaxone with a compound of formula I (Test D); format: cell-based; conditions: Table 2; 1:4 combination of ceftriaxone with the compound
Procedure: The minimum inhibitory concentration in vitro ([…]) of a 1:4 combination of ceftriaxone with a compound of formula I against Citrobacter freundii 1982 was measured and compiled in Table 2 hereinafter.

`CS(=O)(=O)OC1=C(C(=O)O)N2C(=O)[C@@H]3[C@H]2[C@H](C1)CN3C(=O)N[C@H]1CCNC1=O` [9(e), (1aS,3aR,6bR)-5-Methylsulphonyloxy-1-oxo-2-[(S)-2-oxo-pyrrolidin-3-ylcarbamoyl]-1a,2,3,3a,4,6b-hexahydro-1H-2,6a-diazacyclobut[cd]indene-6-carboxylicacid sodium salt] and `Cn1nnnc1SC1=C(C(=O)O)N2C(=O)[C@@H]3[C@H]2[C@H](C1)CN3C(=O)N[C@H]1CCNC1=O` [3(c), (1aS,3aR,6bR)-2-[(S)-2-Oxo-pyrrolidin-3-ylcarbamoyl]-5-(1-methyl-1H-tetrazol-5-ylsulphanyl)-1-oxo-1a,2,3,3a,4,6b-hexahydro-1H-2,6a-diazacyclobut[cd]indene-6-carboxylic acid sodium salt] are the same in “MIC C. freundii 1982” value: 0.25 µg/mL for the first, 0.25 µg/mL for the second.

First: NC(=O)c1ccc(NC(=O)N2C[C@H]3CC(Sc4nnc(N)s4)=C(C(=O)O)N4C(=O)[C@@H]2[C@@H]34)cc1 [3(m), (1aS,3aR,6bR)-5-(5-Amino1,3,4-thiadiazol-2-ylsulphanyl)-2-(4-carbamoyl-amino-phenylcarbamoyl)-1-oxo-1a,2,3,3a,4,6b-hexahydro-1H-2,6a-diazacyclobut]cd]indene-6-carboxylic acid sodium salt]
Second: Cc1nnc(SC2=C(C(=O)O)N3C(=O)[C@@H]4[C@H]3[C@H](C2)CN4C(=O)Nc2ccc(C(N)=O)cc2)s1 [3(k), (1aS,3aR,6bR)-2-(4-Carbamoyl-phenylcarbamoyl)-5-(5-methyl-1,3,4-thiadiazol-2-ylsulphanyl)-1-oxo-1a,2,3,3a,4,6b-hexahydro-1H-2,6a-diazacyclobut[cd]indene-6-carboxylic acid sodium salt]
The “MIC C. freundii 1982” value of the first is 2-fold lower: 0.25 µg/mL for the first, 0.5 µg/mL for the second.

Compared with `CC(C)(C)OC(=O)N1C[C@H]2CC(OS(C)(=O)=O)=C(C(=O)O)N3C(=O)[C@@H]1[C@@H]23` [10(a), (1aS,3aR,6bR)-2-t-Butoxycarbonyl-5-methylsulphonyloxy-1-oxo-1a,2,3,3a,4,6b-hexahydro-1H-2,6a-diazacyclobut[cd]-indene-6-carboxylic acid sodium salt], `Cc1ccc(S(=O)(=O)OC2=C(C(=O)O)N3C(=O)[C@@H]4[C@H]3[C@H](C2)CN4C(=O)OC(C)(C)C)cc1` [10(d), (1aS,3aR,6bR)-2-t-Butoxycarbonyl-5-(4-methyl-phenylsulphonyloxy)-1-oxo-1a,2,3,3a,4,6b-hexahydro-1H-2,6a-diazacyclobut[cd]indene-6-carboxylic acid sodium salt] is 8-fold higher in “MIC C. freundii 1982” value: 1 µg/mL for the first, 8 µg/mL for the second.

Compared with `Cn1nnnc1SC1=C(C(=O)O)N2C(=O)[C@@H]3[C@H]2[C@H](C1)CN3C(=O)Nc1ccc(C(N)=O)cc1` [3(b), (1aS,3aR,6bR)-2-(4-Carbamoyl-phenylcarbamoyl)-5-(1-methyl-1H-tetrazol-5-ylsulphanyl)-1-oxo-1a,2,3,3a,4,6b-hexahydro-1H-2,6a-diazacyclobut[cd]indene-6-carboxylic acid sodium salt], `Cn1nnnc1SC1=C(C(=O)O)N2C(=O)[C@@H]3[C@H]2[C@H](C1)CN3C(=O)NC1CCSC1=O` (mixture of isomers) [3(f), (1aS,3aR,6bR)-5-(1-Methyl-1H-tetrazol-5-ylsulphanyl)-1-oxo-2-[(R)- and [(S)-2-oxo-tetrahydro-thien-3-ylcarbamoyl]-1a,2,3,3a,4,6b-hexahydro-1H-2,6a-diazacyclobut[cd]indene-6-carboxylic acid sodium salt] is 4.2-fold lower in “MIC C. freundii 1982” value: 0.25 µg/mL for the first, 0.06 µg/mL for the second.

`CC(=O)OCC1=C(C(=O)O)N2C(=O)[C@@H]3[C@H]2[C@H](C1)CN3C(=O)Nc1ccc(O)cc1` [Example 25, (1aS,3aR,6bR)-5-Acetoxymethyl-2-(4-hydroxy-phenylcarbamoyl)-1-oxo-1a,2,3,3a,4,6b-hexahydro-1H-2,6a-diazacyclobut[cd]indene-6-carboxylic acid sodium salt] and `COC(=O)CC1=C(C(=O)O)N2C(=O)[C@@H]3[C@H]2[C@H](C1)CN3C(=O)Nc1ccc(O)cc1` [13(b), (1aS,3aR,6bR)-2-(4-Hydroxy-phenylcarbamoyl)-5-methoxycarbonylmethyl-1-oxo-1a,2,3,3a,4,6b-hexahydro-1H-2,6a-diazacyclobut[cd]indene-6-carboxylic add sodium salt] are the same in “MIC C. freundii 1982” value: 0.25 µg/mL for the first, 0.25 µg/mL for the second.

Compared with `Cn1nnnc1SC1=C(C(=O)O)N2C(=O)[C@@H]3[C@H]2[C@H](C1)CN3C(=O)NC1CCS(=O)(=O)C1` (mixture of isomers) [3(i), (1aS,3aR,6bR)-2-[(R)- and [(S)-1,1-dioxo-tetrahydrothien-3-ylcarbamoyl)-5-(1-methyl-1H-tetrazol-5-ylsulphanyl)-1-oxo-1a,2,3,3a,4,6b-hexahydro-1H-2,6a-diazacyclobut[cd]indene-6-carboxylic acid sodium salt], `O=C(C[n+]1ccccc1)Nc1nnc(SC2=C(C(=O)[O-])N3C(=O)[C@@H]4[C@H]3[C@H](C2)CN4C(=O)Nc2ccc(O)cc2)s1` [Example 5, (1aS,3aR,6bR)-2-(4-Hydroxy-phenylcarbamoyl)-1-oxo-5-[5-(pyridin-1-ylioacetylamino)-1,3,4-thiadiazol-2-ylsulphanyl]-1a,2,3,3a,4,6b-hexahydro-1H-2,6a-diazacyclobut[cd]indene-6-carboxylic acid] is 33-fold higher in “MIC C. freundii 1982” value: 0.06 µg/mL for the first, 2 µg/mL for the second.

First: O=C([O-])C1=C(C[n+]2ccccc2)C[C@@H]2CN(C(=O)Nc3ccc(O)cc3)[C@@H]3C(=O)N1[C@H]23 [23(a)]
Second: NC(=O)c1ccc(NC(=O)N2C[C@H]3CC(C[n+]4ccccc4)=C(C(=O)[O-])N4C(=O)[C@@H]2[C@@H]34)cc1 [23(c), (1aS,3aR,6bR)-2-(4-Carbamoyl-phenylcarbamoyl)-1-oxo-5-(pyridin-1-yliomethyl)-1a,2,3,3a,4,6b-hexahydro-1H-2,6a-diazacyclobut[cd]indene-6-carboxylate]
The “MIC C. freundii 1982” value of the first is 4-fold higher: 1 µg/mL for the first, 0.25 µg/mL for the second.

same assay, conditions: Table 4; test D, 1:4 combination of ceftriaxone with the compound

First: Cn1nnnc1SCC1=C(C(=O)O)N2C(=O)[C@@H]3[C@H]2[C@H](C1)CN3C(=O)NCc1cccs1 [18(g), (1aS,3aR,6bR)-1-Oxo-5-(1-methyl-1H-tetrazol-5-yl-sulphanylmethyl)-2-thiophen-2-ylmethylcarbamoyl-1a,2,3,3a,4,6b-hexahydro-1H-2,6a-diazacyclobut[cd]indene-6-carboxylic acid sodium salt]
Second: COC(=O)CN1C[C@H]2CC(CSc3nnnn3C)=C(C(=O)O)N3C(=O)[C@@H]1[C@@H]23 [61(a), (1aS,3aR,6bR)-2-Methoxycarbonylmethyl-5-(1-methyl-1H-tetrazol-5-ylsulphanylmethyl)-1-oxo-1a,2,3,3a,4,6b-hexahydro-1H-2,6a-diazacyclobut[cd]indene-6-carboxylic acid]
The “MIC C. freundii 1982 (D)” value of the first is 2-fold higher: 0.5 µg/mL for the first, 0.25 µg/mL for the second.

With `Cn1nnnc1SCC1=C(C(=O)O)N2C(=O)[C@@H]3[C@H]2[C@H](C1)CN3S(=O)(=O)C(F)(F)F` [19(f), (1aS,3aR,6bR)-5-(1-Methyl-1H-tetrazol-5-ylsulphanylmethyl)-1-oxo-2-trifluormethylsulphonyl-1a,2,3,3a,4,6b-hexahydro-1H-2,6a-diazacyclobut[cd]indene-6-carboxylic acid sodium salt] the “MIC C. freundii 1982 (D)” value was 4 µg/mL.
